Patent US20240254138A1, “TRICYCLIC PYRIMIDINES AS CYCLIN-DEPENDENT KINASE 7 (CDK7) INHIBITORS” (JANSSEN PHARMACEUTICA NV, priority 2021, published 2024)
Read-outs that look alike come from different tables or passages of the source.

Experiments:
[1] = system: RNA Polymerase II Serine 5 phosphorylation (Rpb1 CTD, downstream substrate of CDK7) in A549 cells; assay: Imaging-based cellular RNA PolII Ser5 phosphorylation assay in A549 cells; format: cell-based, human; conditions: for IC50: Homo sapiens; for CDK7_A549 Wild-type CDK7 (pIC50): A549 cells
How it was run: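 A549 cells, seeded 1000/well in DMEM with 1% FBS and cultured 20 h, were treated with compound for 3 h at 37 °C. Ser5-phospho-Rpb1 CTD detected by immunofluorescence imaging after fixation and methanol permeabilization; IC50 from curve fit normalized to DMSO and 10 μM reference-compound controls.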

[2] = system: RNA Polymerase II Serine 5 phosphorylation in A549 cells overexpressing CDK7-mutant (C312S); assay: Imaging-based cellular RNA PolII Ser5 phosphorylation assay in A549 cells overexpressing CDK7-mutant (C312S); format: cell-based, human; conditions: for IC50: Homo sapiens; for CDK7_A549 mutant hCDK7(pIC50): A549 cells overexpressing CDK7-mutant (C312S)
How it was run: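 A549 cells overexpressing CDK7 C312S (with endogenous wild-type CDK7) were treated with compound for 3 h at 37 °C in 1% FBS medium. Phospho-Rpb1 CTD Ser5 was immunostained after fixation and imaged. IC50 came from curve fit of % control, normalised to DMSO and 10 μM reference-compound controls.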

[3] = biological target: CDK7/cyclinH/MAT1 trimeric complex (Homo sapiens, UniProt P50613); assay: In vitro CDK7 assay, potency of irreversible covalent inhibitors (kinact/KI), coupled PK/LDH ADP readout at 340 nm
Sequence of CDK7/cyclinH/MAT1 trimeric complex (P50613 whole entry): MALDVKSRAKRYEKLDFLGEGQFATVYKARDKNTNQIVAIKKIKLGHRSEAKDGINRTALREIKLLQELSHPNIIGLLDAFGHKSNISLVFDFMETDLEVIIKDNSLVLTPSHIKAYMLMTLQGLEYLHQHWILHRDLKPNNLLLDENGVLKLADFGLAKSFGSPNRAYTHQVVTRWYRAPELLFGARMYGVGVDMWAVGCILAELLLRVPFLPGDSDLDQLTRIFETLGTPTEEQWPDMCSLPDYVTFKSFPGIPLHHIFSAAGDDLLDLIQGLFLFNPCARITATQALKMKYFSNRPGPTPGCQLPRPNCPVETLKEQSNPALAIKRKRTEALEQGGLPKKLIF
Sequence of CDK7/cyclinH/MAT1 trimeric complex (P51946 whole entry partner): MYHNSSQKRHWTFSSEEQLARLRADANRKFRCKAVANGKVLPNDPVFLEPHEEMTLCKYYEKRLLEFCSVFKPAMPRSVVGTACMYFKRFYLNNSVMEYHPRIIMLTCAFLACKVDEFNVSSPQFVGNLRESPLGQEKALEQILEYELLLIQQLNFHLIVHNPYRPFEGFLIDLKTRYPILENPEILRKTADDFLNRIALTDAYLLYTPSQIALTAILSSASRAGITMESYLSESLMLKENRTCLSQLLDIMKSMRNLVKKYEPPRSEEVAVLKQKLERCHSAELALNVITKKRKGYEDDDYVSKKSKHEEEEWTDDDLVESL
Sequence of CDK7/cyclinH/MAT1 trimeric complex (P51948 whole entry partner): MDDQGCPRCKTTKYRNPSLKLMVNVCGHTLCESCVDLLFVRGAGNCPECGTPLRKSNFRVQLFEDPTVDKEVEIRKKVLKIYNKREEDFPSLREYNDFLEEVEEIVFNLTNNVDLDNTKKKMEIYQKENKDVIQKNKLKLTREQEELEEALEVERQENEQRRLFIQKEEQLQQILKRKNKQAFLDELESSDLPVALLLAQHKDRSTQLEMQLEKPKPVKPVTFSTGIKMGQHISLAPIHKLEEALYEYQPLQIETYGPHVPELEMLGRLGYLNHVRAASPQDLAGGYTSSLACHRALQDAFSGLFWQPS

[4] = A549, A549 cells, wild-type CDK7, RNA PolII Ser5 phosphorylation, averaged over all measurements, read-out: CDK7_A549 Wild-type CDK7 (pIC50) (converted)
[5] = A549, A549 cells overexpressing CDK7-mutant (C312S), RNA PolII Ser5 phosphorylation, averaged over all measurements, read-out: CDK7_A549 mutant hCDK7(pIC50) (converted)
[6] = CDK7 (20 nM enz.) (KI, μM), 20 nM enzyme
[7] = read-out: CDK7 (20 nM enz.) (kinact, s^−1), 20 nM enzyme
[8] = read-out: CDK7 (20 nM enz.) (kinact/KI, M^−1*s^−1), 20 nM enzyme
[9] = read-out: CDK7 (kinact/KI, M^−1*s^−1), potency of irreversible covalent inhibitors, 1 mM ATP, room temperature, averaged values over all measurements
[10] = CDK7 (KI(μM)), […], 1 mM ATP, room temperature, averaged values over all measurements
[11] = read-out: CDK7 (kinact, s^−1), kinact = maximal rate of inactivation, 1 mM ATP, room temperature, averaged values over all measurements
[12] = read-out: CDK7 (20 nM enz.) (kobs/[I], M^−1*s^−1), 20 nM enzyme
[13] = wild-type CDK7, RNA PolII Ser5 phosphorylation, averaged over all measurements
[14] = RNA PolII Ser5 phosphorylation, averaged over all measurements

| IC50 [1, 4] | IC50 [2, 5] | kinact/KI [3, 9] | Ki [3, 10] | kinact [3, 11] | Structure (SMILES) | further results |
| --- | --- | --- | --- | --- | --- | --- |
| 0.851 µM | > 10 µM | 849 M⁻¹ s⁻¹ | 0.129 µM | 0.00011 s⁻¹ | C=CC(=O)N1CC(N2CCC(c3ccc4c(c3)Nc3ncc(C)c(N5CCOCC5)c3CO4)CC2)C1 [Compound 37] | – |
| 0.141 µM | > 10 µM | 803 M⁻¹ s⁻¹ | – | – | C=CC(=O)N1CC(N2CCC(c3ccc4c(c3)Nc3nccc(-c5cnn(C)c5)c3CO4)CC2)C1 [Compound 39] | – |
| 1.12 µM | > 10 µM | 306 M⁻¹ s⁻¹ | 0.209 µM | 6.41e-05 s⁻¹ | C=CC(=O)N1CC(N2CCCC(c3ccc4c(c3)Nc3nccc(N5CCOCC5)c3CO4)C2)C1 (stereo not drawn) [Compound 40] | – |
| 0.123 µM | > 10 µM | 761 M⁻¹ s⁻¹ | 0.0811 µM | 6.17e-05 s⁻¹ | C=CC(=O)N1CC(N2CCCC(c3ccc4c(c3)Nc3nccc(N5CCOCC5)c3CO4)CC2)C1 (stereo not drawn) [Compound 42] | – |
| 0.339 µM | > 10 µM | 1100 M⁻¹ s⁻¹ | 0.0497 µM | 5.46e-05 s⁻¹ | C=CC(=O)N1CC(c2ccc(-c3ccc4c(c3)Nc3nccc(N5CCOCC5)c3CO4)cn2)C1 [Compound 43] | – |
| 1.15 µM | > 10 µM | 1110 M⁻¹ s⁻¹ | 0.123 µM | 0.000137 s⁻¹ | C=CC(=O)N1CC(N2CCC(c3ccc4c(c3)Nc3ncc(C#N)c(N5CCOCC5)c3CO4)CC2)C1 [Compound 45] | – |
| 0.631 µM | > 10 µM | 456 M⁻¹ s⁻¹ | 0.223 µM | 0.000102 s⁻¹ | C=CC(=O)N1CC(N2CCC(c3ccc4c(c3)Nc3nccc(N5CCC6(CCO6)CC5)c3CO4)CC2)C1 [Compound 46] | – |
| 0.871 µM | > 10 µM | 605 M⁻¹ s⁻¹ | 0.207 µM | 0.000125 s⁻¹ | C=CC(=O)N1CC(N2CCC(c3ccc4c(c3)Nc3nccc(N5CCOC6(CCOCC6)C5)c3CO4)CC2)C1 [Compound 47] | – |
| ~0.178 µM | > 10 µM | 1090 M⁻¹ s⁻¹ | 0.132 µM | 0.000144 s⁻¹ | CC#CC(=O)N1CC(N2CCC(c3ccc4c(c3)Nc3nccc(N5CCOCC5)c3CO4)CC2)C1 [Compound 50] | – |
| 0.417 µM | > 10 µM | 1110 M⁻¹ s⁻¹ | 0.0706 µM | 7.84e-05 s⁻¹ | C=CC(=O)N1CC(c2nc(C)c(-c3ccc4c(c3)Nc3nccc(N5CCOCC5)c3CO4)c(C)n2)C1 [Compound 51] | – |
| 0.282 µM | 2.82 µM | 998 M⁻¹ s⁻¹ | 0.166 µM | 0.000166 s⁻¹ | C=CC(=O)N1CC(N2CCC(c3ccc4c(c3)OCc3c(-c5cnn(C)c5)ccnc3N4)CC2)C1 [Compound 52] | – |
| 0.186 µM | > 10 µM | 773 M⁻¹ s⁻¹ | – | – | C=CC(=O)N1CC(N2CCC(c3ccc4c(c3)Nc3nccc(N5CCCOCC5)c3CO4)CC2)C1 [Compound 53] | – |
| > 10 µM | > 10 µM | 2.45 M⁻¹ s⁻¹ | – | – | C=CC(=O)N1CCC(c2ccc3c(c2)OCc2c(N4CCOCC4)ccnc2N3)C1 (stereo not drawn) [Compound 55] | – |

Second part, the compound before the results:

| Structure (SMILES) | IC50 [1, 4] | IC50 [2, 5] | kinact/KI [3, 9] | Ki [3, 10] | kinact [3, 11] | further results |
| --- | --- | --- | --- | --- | --- | --- |
| C#CCOc1cc(C(=O)Nc2ccc3c(c2)Nc2nccc(C4CCOCC4)c2CO3)ccc1NC(=O)C=C [Compound 8] | 0.12 µM | > 10 µM | 1530 M⁻¹ s⁻¹ | – | – | Ki [3, 6]: 0.0321 µM; kinact [3, 7]: 5.8e-05 s⁻¹; kinact/KI [3, 8]: 1810 M⁻¹ s⁻¹ |
| C=CC(=O)N1CC(N2CCC(c3ccc4c(c3)Nc3nccc(N5CCS(=O)(=O)CC5)c3CO4)CC2)C1 [Compound 9] | 0.447 µM | > 10 µM | 486 M⁻¹ s⁻¹ | – | – | – |
| C=CC(=O)N1CC(N2CCC(c3ccc4c(c3)Nc3nccc(C5=CCOCC5)c3CO4)CC2)C1 [Compound 10] | 0.204 µM | > 10 µM | 1570 M⁻¹ s⁻¹ | 0.0555 µM | 0.000107 s⁻¹ | – |
| C=CC(=O)N1CC(N2CCC(c3ccc4c(c3)Nc3nccc(N5C[C@H]6CC[C@@H](C5)O6)c3CO4)CC2)C1 [Compound 11] | 0.0871 µM | > 10 µM | 688 M⁻¹ s⁻¹ | – | – | – |
| C=CC(=O)N1CC(N2CCC(c3ccc4c(c3)Nc3nccc(N5CC=C(CCO)CC5)c3CO4)CC2)C1 [Compound 12] | 0.537 µM | > 10 µM | 296 M⁻¹ s⁻¹ | – | – | – |
| C=CC(=O)N1CC(N2CCC(c3ccc4c(c3)Nc3ncc(Cl)c(N5CCOCC5)c3CO4)CC2)C1 [Compound 13] | 0.135 µM | > 10 µM | 1040 M⁻¹ s⁻¹ | – | – | – |
| C=CC(=O)Nc1ccc(CNc2ccc3c(c2)Nc2nccc(N4CCOCC4)c2CO3)cn1 [Compound 16] | 0.0457 µM | 3.8 µM | 402 M⁻¹ s⁻¹ | – | – | Ki [3, 6]: 0.0286 µM; kinact [3, 7]: 3.3e-05 s⁻¹; kinact/KI [3, 8]: 1160 M⁻¹ s⁻¹ |
| C#CCN(C(=O)C=C)c1ccc(C(=O)Nc2ccc3c(c2)Nc2nccc(C4CCOCC4)c2CO3)cc1 [Compound 17] | 0.126 µM | > 10 µM | – | – | – | kinact/KI [3, 12]: 1470 M⁻¹ s⁻¹ |
| C#Cc1cc(C(=O)Nc2ccc3c(c2)Nc2nccc(C4CCOCC4)c2CO3)ccc1NC(=O)C=C [Compound 18] | 0.1 µM | 4.27 µM | – | – | – | kinact/KI [3, 12]: 1070 M⁻¹ s⁻¹ |
| C=CC(=C)N1CC(N2CCC(c3cc4c(cc3C)OCc3c(N5CCOCC5)ccnc3N4)CC2)C1 [Compound 19] | – | – | – | – | – | IC50 ([1]; A549, read-out: CDK7_A549 Wild-type CDK7 (pIC50) (converted)): 0.166 µM; IC50 ([2]; A549, read-out: CDK7_A549 mutant hCDK7(pIC50) (converted)): > 10 µM; kinact/KI ([3]; read-out: CDK7 (kinact/KI, M^−1*s^−1)): 304 M⁻¹ s⁻¹ |
| C=CC(=O)N1CC(N2CCC(c3ccc4c(c3)Nc3nccc(N5CCOCC5)c3C(C)O4)CC2)C1 (stereo not drawn) [Compound 22] | 0.0562 µM | > 10 µM | 52.4 M⁻¹ s⁻¹ | – | – | Ki [3, 6]: 0.0524 µM; kinact [3, 7]: 7.22e-05 s⁻¹; kinact/KI [3, 8]: 1870 M⁻¹ s⁻¹ |
| C=CC(=O)N1CC(N2CCC(c3cc4c(cc3Cl)OCc3c(N5CCOCC5)ccnc3N4)CC2)C1 [Compound 23] | 0.12 µM | > 10 µM | 455 M⁻¹ s⁻¹ | – | – | – |
| C=CC(=O)Nc1cc(-c2ccc3c(c2)Nc2nccc(N4CCOCC4)c2CO3)ccn1 [Compound 24] | 0.0525 µM | 6.92 µM | 21.5 M⁻¹ s⁻¹ | – | – | kinact/KI [3, 8]: 1250 M⁻¹ s⁻¹ |
| C=CC(=O)N1CCC(c2ccc(-c3ccc4c(c3)Nc3nccc(N5CCOCC5)c3CO4)cn2)C1 (stereo not drawn) [Compound 25] | 0.891 µM | > 10 µM | 254 M⁻¹ s⁻¹ | 0.0648 µM | 2.33e-05 s⁻¹ | – |
| C=CC(=O)Nc1ccc(-c2ccc3c(c2)Nc2nccc(N4CCOCC4)c2CO3)cn1 [Compound 26] | – | – | 1620 M⁻¹ s⁻¹ | 0.063 µM | 0.000102 s⁻¹ | CDK7_A549 Wild-type CDK7 (pIC50) [1, 13]: 7.65; CDK7_A549 mutant hCDK7(pIC50) [2, 14]: ~5.1; CDK7 (20 nM enz.) (kobs/[I], M^−1*s^−1) ([3]; 20 nM enzyme): 1343.33 M⁻¹ s⁻¹ |
| C=CC(=O)N1CC(N2CCC(c3cc4c(cc3F)OCc3c(N5CCOCC5)ccnc3N4)CC2)C1 [Compound 28] | 0.257 µM | > 10 µM | 477 M⁻¹ s⁻¹ | – | – | – |
| C=CC(=O)N1CC(N2CCC(c3cc(Cl)c4c(c3)Nc3nccc(N5CCOCC5)c3CO4)CC2)C1 [Compound 29] | 0.0389 µM | ~7.76 µM | – | – | – | kinact/KI [3, 8]: 1030 M⁻¹ s⁻¹ |
| C=CC(=O)N1CCC(C#Cc2ccc3c(c2)Nc2nccc(C4CCOCC4)c2CO3)CC1 [Compound 30] | ~7.59 µM | > 10 µM | 208 M⁻¹ s⁻¹ | 0.316 µM | 6.56e-05 s⁻¹ | – |
| C=CC(=O)N1CC(N2CCC(c3ccc4c(c3)Nc3nccc(-c5cnc6[nH]ccc6c5)c3CO4)CC2)C1 [Compound 31] | 0.437 µM | > 10 µM | 638 M⁻¹ s⁻¹ | 0.175 µM | 0.000112 s⁻¹ | – |
| C=CC(=O)N1CC(C#Cc2ccc3c(c2)Nc2nccc(C4CCOCC4)c2CO3)C1 [Compound 33] | 0.603 µM | > 10 µM | 1050 M⁻¹ s⁻¹ | 0.15 µM | 0.000158 s⁻¹ | – |
| C=CC(=O)N1CCC(N2CC(c3ccc4c(c3)Nc3nccc(C5CCOCC5)c3CO4)C2)CC1 [Compound 36] | – | – | – | – | – | CDK7_A549 Wild-type CDK7 (pIC50) [1, 13]: 6.89; CDK7_A549 mutant hCDK7(pIC50) [2, 14]: 5.04; CDK7 (20 nM enz.) (kinact/KI, M^−1*s^−1) ([3]; 20 nM enzyme): 535 M⁻¹ s⁻¹; Ki [3, 6]: 0.092 µM; kinact [3, 7]: 4.92e-05 s⁻¹ |
| C=CC(=O)N1CC(N2[C@@H]3CC[C@H]2C[C@@H](c2ccc4c(c2)Nc2nccc(N5CCOCC5)c2CO4)C3)C1 [Compound 49] | 0.0537 µM | ~10 µM | 990 M⁻¹ s⁻¹ | – | – | kinact/KI [3, 12]: 1150 M⁻¹ s⁻¹ |
| C=CC(=O)N1CC(N2[C@@H]3CC[C@H]2C[C@H](c2ccc4c(c2)Nc2nccc(N5CCOCC5)c2CO4)C3)C1 [Compound 54] | 0.145 µM | 8.13 µM | 997 M⁻¹ s⁻¹ | 0.1 µM | 0.0001 s⁻¹ | – |
